Assay results published in PubChem BioAssay AID330 (DTP/NCI, 2004).
Several values for one entry are separate records, joined by “and”; a condition that tells them apart may be missing. Equal entries are not always repeated. Inconclusive results and toxic doses are left out. How the source made its calls: active means survival T/C of 150% or more; inactive means T/C below 125% in these data.

System: P388 leukemia ip, CD2F1 mice, survival T/C
Test: NCI In Vivo Anticancer Drug Screen. Data for tumor model P388 Leukemia (intraperitoneal) in CD2F1 (CDF1) mice
Conditions: endpoint: median survival time, higher = longer survival
How it was run: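 Mice carrying the transplanted tumor received test compound or vehicle. Survival was recorded in each group, and the value is the treated-group measurement divided by that of the vehicle-treated control group.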

[1] = dose: 15.0 mg/kg/injection, schedule: Q01DX005 (ip), vehicle: saline
[2] = dose: 30.0 mg/kg/injection, schedule: Q01DX005 (ip), vehicle: saline
[3] = dose: 60.0 mg/kg/injection, schedule: Q01DX005 (ip), vehicle: saline
[4] = dose: 50.0 mg/kg/injection, schedule: Q01DX009 (ip), vehicle: saline with Tween-80
[5] = dose: 100.0 mg/kg/injection, schedule: Q01DX009 (ip), vehicle: saline with Tween-80
[6] = dose: 200.0 mg/kg/injection, schedule: Q01DX009 (ip), vehicle: saline with Tween-80
[7] = dose: 25.0 mg/kg/injection, schedule: Q01DX009 (ip), vehicle: saline with Tween-80
[8] = dose: 50.0 mg/kg/injection, schedule: Q01DX009 (ip), vehicle: Klucel (hydroxypropylcellulose) (HPC)
[9] = dose: 100.0 mg/kg/injection, schedule: Q01DX009 (ip), vehicle: Klucel (hydroxypropylcellulose) (HPC)
[10] = dose: 12.5 mg/kg/injection, schedule: Q01DX009 (ip), vehicle: saline
[11] = dose: 25.0 mg/kg/injection, schedule: Q01DX009 (ip), vehicle: saline
[12] = dose: 50.0 mg/kg/injection, schedule: Q01DX009 (ip), vehicle: saline
[13] = dose: 50.0 mg/kg/injection, schedule: Q01DX005 (ip), vehicle: saline with Tween-80
[14] = dose: 100.0 mg/kg/injection, schedule: Q01DX005 (ip), vehicle: saline with Tween-80
[15] = dose: 200.0 mg/kg/injection, schedule: Q01DX005 (ip), vehicle: saline with Tween-80

Measured: T/C

C/C(=N/N=C(N)N)c1cn(C(=N)N)nc1C
inactive: dose: 7.5 mg/kg/injection, schedule: Q01DX005 (ip), vehicle: saline 100 % of control and 101 % of control | [1] 109 % of control and 95 % of control | [2] 101 % of control and 95 % of control | [3] 101 % of control and 107 % of control | dose: 120.0 mg/kg/injection, schedule: Q01DX005 (ip), vehicle: Klucel (hydroxypropylcellulose) (HPC) 99 % of control | dose: 240.0 mg/kg/injection, schedule: Q01DX005 (ip), vehicle: Klucel (hydroxypropylcellulose) (HPC) 117 % of control

Cc1ccc(O)c(C(c2cc(C)ccc2O)c2ccccc2Cl)c1
inactive: [4] 108 % of control | [5] 108 % of control | [6] 103 % of control

CN(C)NC(=O)/C=C\C(=O)O
inactive: dose: 66.0 mg/kg/injection, schedule: Q01DX009 (ip), vehicle: saline 105 % of control | dose: 100.0 mg/kg/injection, schedule: Q01DX009 (ip), vehicle: saline 100 % of control | dose: 150.0 mg/kg/injection, schedule: Q01DX009 (ip), vehicle: saline 100 % of control | dose: 200.0 mg/kg/injection, schedule: Q01DX009 (ip), vehicle: saline 91 % of control

CC(C)CCCCCCCCCCCCC(=O)NCC(=O)NC1C(O)C(O)C(Nc2ncnc3nc[nH]c23)C(O)C1O (stereo not given)
inactive: dose: 0.5 mg/kg/injection, schedule: Q01DX009 (ip), vehicle: other 105 % of control | dose: 1.0 mg/kg/injection, schedule: Q01DX009 (ip), vehicle: other 101 % of control | dose: 2.0 mg/kg/injection, schedule: Q01DX009 (ip), vehicle: other 91 % of control | dose: 4.0 mg/kg/injection, schedule: Q01DX009 (ip), vehicle: other 91 % of control | dose: 8.0 mg/kg/injection, schedule: Q01DX009 (ip), vehicle: other 101 % of control | dose: 16.0 mg/kg/injection, schedule: Q01DX009 (ip), vehicle: other 95 % of control | dose: 32.0 mg/kg/injection, schedule: Q01DX009 (ip), vehicle: other 90 % of control

CC1(C)CC(=O)C=C(NCc2ccccc2)C1
inactive: [7] 104 % of control | [4] 104 % of control and 90 % of control | [5] 101 % of control and 96 % of control | [6] 99 % of control and 91 % of control

Cc1ccc(NS(=O)(=O)c2ccccc2)nc1
inactive: [7] 110 % of control | [4] 100 % of control | [5] 100 % of control | [6] 95 % of control | dose: 400.0 mg/kg/injection, schedule: Q01DX009 (ip), vehicle: saline with Tween-80 105 % of control

CCOC(=O)C1=C(O)C2(CC(C)=C(C)CS2=O)SC1=Nc1ccccc1 (stereo not given)
inactive: dose: 60.0 mg/kg/injection, schedule: Q01DX005 (ip), vehicle: saline with Tween-80 96 % of control | dose: 120.0 mg/kg/injection, schedule: Q01DX005 (ip), vehicle: saline with Tween-80 107 % of control | dose: 240.0 mg/kg/injection, schedule: Q01DX005 (ip), vehicle: saline with Tween-80 104 % of control

Nc1nc2c(ncn2C2OC(CO)C(O)C2O)c(=O)n1N (stereo not given)
inactive: dose: 12.5 mg/kg/injection, schedule: Q01DX009 (ip), vehicle: Klucel (hydroxypropylcellulose) (HPC) 100 % of control and 102 % of control | dose: 25.0 mg/kg/injection, schedule: Q01DX009 (ip), vehicle: Klucel (hydroxypropylcellulose) (HPC) 103 % of control | [8] 101 % of control and 108 % of control | [9] 104 % of control and 113 % of control

O=C(NCCCCCCNC(=O)C1CCCN1)C1CCCN1 (stereo not given)
inactive: [1] 103 % of control | [2] 96 % of control | [3] 100 % of control and 97 % of control

N#CC12c3ccccc3C(c3ccccc31)C1C(=O)C=CC(=O)C12 (stereo not given)
inactive: [10] 111 % of control | [11] 106 % of control | [12] 92 % of control and 96 % of control

CCOC(=O)c1cc(=O)c2c(OC)ccc(OC)c2[nH]1
inactive: [13] 90 % of control | [14] 98 % of control | [15] 97 % of control

N=C(N)COc1ccccc1
inactive: dose: 12.5 mg/kg/injection, schedule: Q01DX005 (ip), vehicle: saline 95 % of control | dose: 25.0 mg/kg/injection, schedule: Q01DX005 (ip), vehicle: saline 95 % of control | dose: 50.0 mg/kg/injection, schedule: Q01DX005 (ip), vehicle: saline 99 % of control and 101 % of control

C1=CC2CCC1C1CSCC21 (stereo not given)
inactive: [10] 98 % of control | [11] 100 % of control | [12] 87 % of control and 92 % of control

COc1ccc(OC)c2c(Cl)ccnc12
inactive: dose: 12.5 mg/kg/injection, schedule: Q01DX005 (ip), vehicle: saline with Tween-80 99 % of control | dose: 25.0 mg/kg/injection, schedule: Q01DX005 (ip), vehicle: saline with Tween-80 103 % of control | [13] 97 % of control

CCN1CSC(=S)N(Cc2ccccc2)C1
inactive: [8] 99 % of control | [9] 101 % of control | dose: 200.0 mg/kg/injection, schedule: Q01DX009 (ip), vehicle: Klucel (hydroxypropylcellulose) (HPC) 101 % of control

O/N=C1/CN(CCN2CC(NO)=N/C(=N\O)C2)CC(NO)=N1
inactive: dose: 50.0 mg/kg/injection, schedule: Q01DX005 (ip), vehicle: Klucel (hydroxypropylcellulose) (HPC) 90 % of control | dose: 100.0 mg/kg/injection, schedule: Q01DX005 (ip), vehicle: Klucel (hydroxypropylcellulose) (HPC) 89 % of control | dose: 200.0 mg/kg/injection, schedule: Q01DX005 (ip), vehicle: Klucel (hydroxypropylcellulose) (HPC) 89 % of control

CC1CCC2(OC1)OC1CC3C4CC=C5CC(OC6OC(CO)C(OC7OC(C)C(OC8OC(C)C(O)C(O)C8O)C(O)C7O)C(O)C6OC6OC(C)C(O)C(O)C6O)CCC5(C)C4CCC3(C)C1C2C (stereo not given)
inactive: dose: 0.62 mg/kg/injection, schedule: Q01DX009 (ip), vehicle: saline 106 % of control | dose: 1.25 mg/kg/injection, schedule: Q01DX009 (ip), vehicle: saline 91 % of control | dose: 2.5 mg/kg/injection, schedule: Q01DX009 (ip), vehicle: saline 90 % of control

C[N+](C)(C)CC(=O)O
inactive: dose: 10.0 mg/kg/injection, schedule: Q01DX005 (ip), vehicle: saline 104 % of control | dose: 20.0 mg/kg/injection, schedule: Q01DX005 (ip), vehicle: saline 99 % of control | dose: 31.25 mg/kg/injection, schedule: Q01DX005 (ip), vehicle: saline 100 % of control | dose: 40.0 mg/kg/injection, schedule: Q01DX005 (ip), vehicle: saline 98 % of control | dose: 62.5 mg/kg/injection, schedule: Q01DX005 (ip), vehicle: saline 105 % of control | dose: 125.0 mg/kg/injection, schedule: Q01DX005 (ip), vehicle: saline 91 % of control | dose: 250.0 mg/kg/injection, schedule: Q01DX005 (ip), vehicle: saline 87 % of control

O=C1C(=O)c2ccccc2C(O)=C1CCCc1ccc(C2CCCCCC2)cc1
inactive: [7] 86 % of control | [4] 88 % of control | [5] 89 % of control | [6] 95 % of control

CCN(CC)CCCNCc1cc(-c2ccccc2)nc2ccccc12
inactive: [13] 101 % of control | [14] 100 % of control | [15] 95 % of control

NS(=O)(=O)c1ccc(Nc2c3ccccc3nc3ncccc23)cc1
inactive: dose: 7.5 mg/kg/injection, schedule: Q01DX005 (ip), vehicle: saline with Tween-80 92 % of control | dose: 15.0 mg/kg/injection, schedule: Q01DX005 (ip), vehicle: saline with Tween-80 91 % of control | dose: 30.0 mg/kg/injection, schedule: Q01DX005 (ip), vehicle: saline with Tween-80 92 % of control

CC(C)Sc1nc(NC(=O)N(CCCl)N=O)cc(=O)[nH]1
active: dose: 12.5 mg/kg/injection, schedule: Q01DX005 (ip), vehicle: Klucel (hydroxypropylcellulose) (HPC) 152 % of control

CC(C)(C)c1ccc(O)c(C(c2cc(C(C)(C)C)ccc2O)c2cc(C(C)(C)C)ccc2O)c1
inactive: dose: 100.0 mg/kg/injection, schedule: Q01DX001 (ip), vehicle: saline with Tween-80 97 % of control | dose: 200.0 mg/kg/injection, schedule: Q01DX001 (ip), vehicle: saline with Tween-80 98 % of control | dose: 400.0 mg/kg/injection, schedule: Q01DX001 (ip), vehicle: saline with Tween-80 98 % of control

CSc1nc(Cl)c(Cl)cc1Cl
inactive: [4] 100 % of control | [5] 97 % of control | [6] 91 % of control

Nc1ccc(Nc2c3ccccc3nc3ccccc23)cc1
inactive: dose: 6.25 mg/kg/injection, schedule: Q04DX003 (ip), vehicle: saline 104 % of control | dose: 12.5 mg/kg/injection, schedule: Q04DX003 (ip), vehicle: saline 100 % of control | dose: 25.0 mg/kg/injection, schedule: Q04DX003 (ip), vehicle: saline 121 % of control
